The source made the active and inactive calls. The rule behind the calls is not given here.
Experiments:
U-87 MG [1] = assay: Induction of apoptosis in human U-87 MG cells assessed as viable cells at 5 uM incubated for 24 hrs by Annexin V-APC/7-AAD staining based flow cytometric analysis (reference value: 94 %); type: functional, U-87MG ATCC; conditions: read-out: Activity
U-87 MG [2] = assay: Induction of apoptosis in human U-87 MG cells assessed as early apoptotic cells at 20 uM incubated for 12 hrs by Annexin V-APC/7-AAD staining based flow cytometric analysis (reference value: 0.94 %); type: functional, U-87MG ATCC
U-87 MG [3] = assay: Induction of apoptosis in human U-87 MG cells assessed as late apoptotic cells at 20 uM incubated for 12 hrs by Annexin V-APC/7-AAD staining based flow cytometric analysis (reference value: 3.44 %); type: functional, U-87MG ATCC
U-87 MG [4] = assay: Induction of apoptosis in human U-87 MG cells assessed as viable cells at 20 uM incubated for 48 hrs by Annexin V-APC/7-AAD staining based flow cytometric analysis (reference value: 94.6 %); type: functional, U-87MG ATCC; conditions: read-out: Activity
U-87 MG [5] = assay: Induction of apoptosis in human U-87 MG cells assessed as necrotic cells at 20 uM incubated for 12 hrs by Annexin V-APC/7-AAD staining based flow cytometric analysis (reference value: 1 %); type: functional, U-87MG ATCC
U-87 MG [6] = assay: Induction of apoptosis in human U-87 MG cells at 20 uM incubated for 24 hrs by Annexin V-APC/7-AAD staining based flow cytometric analysis relative to control; type: functional, U-87MG ATCC
LN-229 [7] = assay: Induction of apoptosis in human LN-229 cells assessed as early apoptotic cells at 10 uM incubated for 24 hrs by Annexin V-APC/7-AAD staining based flow cytometric analysis (reference value: 0.45 %); type: functional
U-87 MG [8] = assay: Induction of apoptosis in human U-87 MG cells assessed as late apoptotic cells at 5 uM incubated for 24 hrs by Annexin V-APC/7-AAD staining based flow cytometric analysis (reference value: 4.22 %); type: functional, U-87MG ATCC
LN-229 [9] = assay: Induction of apoptosis in human LN-229 cells assessed as late apoptotic cells at 20 uM incubated for 24 hrs in presence of R7050 by Annexin V-APC/7-AAD staining based flow cytometric analysis (reference value: 4.86 %); type: functional
U-87 MG [10] = assay: Induction of apoptosis in human U-87 MG cells assessed as viable cells at 20 uM incubated for 24 hrs by Annexin V-APC/7-AAD staining based flow cytometric analysis (reference value: 94 %); type: functional, U-87MG ATCC; conditions: read-out: Activity
LN-229 [11] = assay: Induction of apoptosis in human LN-229 cells assessed as viable cells at 20 uM incubated for 24 hrs by Annexin V-APC/7-AAD staining based flow cytometric analysis (reference value: 95.4 %); type: functional; conditions: read-out: Activity
LN-229 [12] = assay: Induction of apoptosis in human LN-229 cells assessed as upregulation of cleaved caspase-3 expression incubated for 24 hrs by Western blot analysis; type: functional, cell-based
LN-229 [13] = assay: Induction of apoptosis in human LN-229 cells assessed as late apoptotic cells at 20 uM incubated for 24 hrs by Annexin V-APC/7-AAD staining based flow cytometric analysis (reference value: 5.1 %); type: functional
LN-229 [14] = assay: Induction of apoptosis in human LN-229 cells assessed as viable cells at 20 uM incubated for 12 hrs by Annexin V-APC/7-AAD staining based flow cytometric analysis (reference value: 91.7 %); type: functional; conditions: read-out: Activity
U-87 MG [15] = assay: Induction of apoptosis in human U-87 MG cells assessed as early apoptotic cells at 20 uM incubated for 24 hrs in presence of R7050 by Annexin V-APC/7-AAD staining based flow cytometric analysis (reference value: 3.44 %); type: functional, U-87MG ATCC
U-87 MG [16] = assay: Induction of apoptosis in human U-87 MG cells assessed as early apoptotic cells at 10 uM incubated for 24 hrs by Annexin V-APC/7-AAD staining based flow cytometric analysis (reference value: 1.59 %); type: functional, U-87MG ATCC
LN-229 [17] = assay: Induction of apoptosis in human LN-229 cells assessed as viable cells at 20 uM incubated for 24 hrs in presence of R7050 by Annexin V-APC/7-AAD staining based flow cytometric analysis (reference value: 92.3 %); type: functional; conditions: read-out: Activity
U-87 MG [18] = assay: Induction of apoptosis in human U-87 MG cells assessed as viable cells at 20 uM incubated for 24 hrs by Annexin V-APC/7-AAD staining based flow cytometric analysis (reference value: 94.6 %); type: functional, U-87MG ATCC; conditions: read-out: Activity
U-87 MG [19] = assay: Induction of apoptosis in human U-87 MG cells assessed as viable cells at 10 uM incubated for 24 hrs by Annexin V-APC/7-AAD staining based flow cytometric analysis (reference value: 94 %); type: functional, U-87MG ATCC; conditions: read-out: Activity
U-87 MG [20] = assay: Induction of apoptosis in human U-87 MG cells assessed as early apoptotic cells at 20 uM incubated for 24 hrs by Annexin V-APC/7-AAD staining based flow cytometric analysis (reference value: 0.94 %); type: functional, U-87MG ATCC
LN-229 [21] = assay: Induction of apoptosis in human LN-229 cells assessed as necrotic cells at 20 uM incubated for 24 hrs in presence of R7050 by Annexin V-APC/7-AAD staining based flow cytometric analysis (reference value: 1.95 %); type: functional
LN-229 [22] = assay: Induction of apoptosis in human LN-229 cells assessed as reduction in Bcl-2/Bax ratio at 5 to 20 uM incubated for 24 hrs by Western blot analysis; type: functional, cell-based; conditions: dose 5-20 µM
U-87 MG [23] = assay: Induction of apoptosis in human U-87 MG cells assessed as early apoptotic cells at 20 uM incubated for 48 hrs by Annexin V-APC/7-AAD staining based flow cytometric analysis (reference value: 0.94 %); type: functional, U-87MG ATCC
LN-229 [24] = assay: Induction of apoptosis in human LN-229 cells assessed as late apoptotic cells at 20 uM incubated for 24 hrs by Annexin V-APC/7-AAD staining based flow cytometric analysis (reference value: 4.86 %); type: functional
U-87 MG [25] = assay: Induction of apoptosis in human U-87 MG cells assessed as viable cells at 20 uM incubated for 24 hrs in presence of R7050 by Annexin V-APC/7-AAD staining based flow cytometric analysis (reference value: 85 %); type: functional, U-87MG ATCC; conditions: read-out: Activity
LN-229 [26] = assay: Induction of apoptosis in human LN-229 cells assessed as viable cells at 20 uM incubated for 24 hrs by Annexin V-APC/7-AAD staining based flow cytometric analysis (reference value: 92.3 %); type: functional; conditions: read-out: Activity
U-87 MG [27] = assay: Induction of apoptosis in human U-87 MG cells assessed as necrotic cells at 20 uM incubated for 24 hrs by Annexin V-APC/7-AAD staining based flow cytometric analysis (reference value: 0.21 %); type: functional, U-87MG ATCC
LN-229 [28] = assay: Induction of apoptosis in human LN-229 cells assessed as late apoptotic cells at 20 uM incubated for 24 hrs by Annexin V-APC/7-AAD staining based flow cytometric analysis (reference value: 3.56 %); type: functional
U-87 MG [29] = assay: Induction of apoptosis in human U-87 MG cells assessed as necrotic cells at 20 uM incubated for 24 hrs in presence of R7050 by Annexin V-APC/7-AAD staining based flow cytometric analysis (reference value: 3.85 %); type: functional, U-87MG ATCC
U-87 MG [30] = assay: Induction of apoptosis in human U-87 MG cells at 20 uM incubated for 24 hrs in presence of R7050 by Annexin V-APC/7-AAD staining based flow cytometric analysis relative to control; type: functional, U-87MG ATCC
U-87 MG [31] = assay: Induction of apoptosis in human U-87 MG cells assessed as reduction in Bcl-2/Bax ratio at 5 to 20 uM incubated for 24 hrs by Western blot analysis; type: functional, cell-based; conditions: U-87MG ATCC, dose 5-20 µM

CCCCCCCNC(=O)[C@H](Cc1c[nH]c2ccccc12)NC(=O)C(C)(c1c[nH]c2ccccc12)c1c[nH]c2ccccc12
viability at 5 µM (U-87 MG [1]): 92.9% | Activity (U-87 MG [2]): 1.53% | Activity (U-87 MG [3]): 3.62% | viability at 20 µM (U-87 MG [4]): 78.7% | Activity (U-87 MG [5]): 1.01% | Activity (U-87 MG [6]): 24.89% | Activity (LN-229 [7]): 3.58% | Activity (U-87 MG [8]): 4.92% | Activity (LN-229 [9]): 5.88% | viability at 20 µM (U-87 MG [10]): 74.3% | viability at 20 µM (LN-229 [11]): 79.8% | Activity (LN-229 [12]): Dose-Dependent Effect | Activity (LN-229 [13]): 4.38% | viability at 20 µM (LN-229 [14]): 92.7% | Activity (U-87 MG [15]): 8.66% | Activity (U-87 MG [16]): 4.46% | viability at 20 µM (LN-229 [17]): 91.4% | viability at 20 µM (U-87 MG [18]): 92% | viability at 10 µM (U-87 MG [19]): 89.2% | Activity (U-87 MG [20]): 2.6% | Activity (LN-229 [21]): 1.25% | Activity (LN-229 [22]): Active | Activity (U-87 MG [23]): 5.06% | Activity (LN-229 [24]): 7.62% | viability at 20 µM (U-87 MG [25]): 87.6% | viability at 20 µM (LN-229 [26]): 66.2% | Activity (U-87 MG [27]): 0.47% | Activity (LN-229 [28]): 4.99% | Activity (U-87 MG [29]): 0.86% | Activity (U-87 MG [30]): 9.37% | Activity (U-87 MG [31]): Active
